Where a name gives a salt, the structure may show the parent alone.
Key:
Format in all cases: physicochemical
[1] = Solubility in organic solvents; details: room temperature; become soluble when heated
Method: However, they become soluble when heated. In accordance with this conversion, the polymorph form A crystals of bicifadine hydrochloride are mixed with an organic solvent, having a boiling point of at least 50° C. to form a slurry. In carrying out this conversion any conventional organic solvent having a boiling point of at least 50° C. can be utilized. The slurry is then heated to a temperature at which said slurry is a clear solution, and this solution is cooled to a temperature of at most about 35° C., preferably between about 0° C. to about 20° C. The cooled solution is maintained at a temperature of at most about 35° C. for a period of time sufficient to allow said polymorph B to form as a pure crystalline form free from the presence of the polymorph form A. If desired, cooling can be carried out with stirring. During cooling the mixture should be monitored to allow sufficient time for crystalline polymorph B to form from the mixture.

[2] = Stability of the polymorphic form on grinding (Retsch Mixer Mill, XRPD analysis); details: Retsch Mixer Mill MM 200, stainless steel ball, 30/s, 5-minute intervals, total of 20 minutes; hydrochloride
Method: The X-ray powder diffraction (XRPD) analyses of polymorphic forms A and B of racemic bicifadine hydrochloride were performed with a Shimadzu XRD-6000 X-ray powder diffractometer using Cu Kα radiation. The bicifadine was loaded onto the machine as a crystalline powder. The instrument was equipped with a fine focus X-ray tube. The tube voltage and amperage were set to 40 kV and 40 mA, respectively. The divergence and scattering slits were set at 1° and the receiving slit was set at 0.15 mm. Diffracted radiation was detected by a NaI scintillation detector. A theta-two theta continuous scan at 3°/min (0.4 sec/0.02° step) from 2.5 to 40°2θ was used. A silicon standard was analyzed to check the instrument alignment. Data were collected and analyzed using XRD-6000 v. 4.1.
Form A bicifadine hydrochloride (207 mg) was charged to a small stainless steel cylinder. A stainless steel ball was added, the cylinder capped, and the unit shaken on a Retsch Mixer Mill (Type MM 200) at 5-minute intervals at a frequency of 30/s for a total of 20 minutes. The milled material was then removed and analyzed by XRPD.
Form B bicifadine hydrochloride (111 mg) was charged to a small stainless steel cylinder. […] The milled material was then removed and analyzed by XRPD.

[3] = Thermodynamic stability of polymorphic forms; details: form B compared with form A; hydrochloride

| solubility in organic solvents [1] | polymorphic form after grinding (XRPD) [2] | SMILES | thermodynamic stability of crystal form [3] |
| --- | --- | --- | --- |
| poorly soluble | partial conversion to form B | Cc1ccc(C23CNCC2C3)cc1 (racemic) [Form A bicifadine hydrochloride, (±)-1-(4-methylphenyl)-3-azabicyclo[3.1.0]-hexane hydrochloride] | not the most thermodynamically stable polymorphic form |
|  | remained form B | Cc1ccc(C23CNCC2C3)cc1 (racemic) [Form B bicifadine hydrochloride, (±)-1-(4-methylphenyl)-3-azabicyclo[3.1.0]-hexane hydrochloride] | more thermodynamically stable |

Source: patent publication US7094799B2, “Polymorphs of bicifadine hydrochloride” (DOV Pharmaceutical, Inc., priority 2002, dated 2006)
